Reference: US10722501B2 (BAYER AKTIENGESELLSCHAFT, priority 2016, dated 2020)
pIC50: −log10 of the molar value.

The compounds below were run against T1, recombinant full-length human prolyl endopeptidase (PREP) (Homo sapiens, UniProt P48147) (assay: Biochemical human prolyl endopeptidase (PREP) assay with fluorescently labelled substrate). Conditions: substrate Z-Gly-Pro-AMC 50 μM, 32° C., 60 min; some as mean values from multiple independent determinations.
T1 construct: To recombinant full-length human prolyl endopeptidase (PREP, R&D-Systems, 4308-SE); purchased R&D-Systems 4308-SE
T1 sequence (P48147 1-710): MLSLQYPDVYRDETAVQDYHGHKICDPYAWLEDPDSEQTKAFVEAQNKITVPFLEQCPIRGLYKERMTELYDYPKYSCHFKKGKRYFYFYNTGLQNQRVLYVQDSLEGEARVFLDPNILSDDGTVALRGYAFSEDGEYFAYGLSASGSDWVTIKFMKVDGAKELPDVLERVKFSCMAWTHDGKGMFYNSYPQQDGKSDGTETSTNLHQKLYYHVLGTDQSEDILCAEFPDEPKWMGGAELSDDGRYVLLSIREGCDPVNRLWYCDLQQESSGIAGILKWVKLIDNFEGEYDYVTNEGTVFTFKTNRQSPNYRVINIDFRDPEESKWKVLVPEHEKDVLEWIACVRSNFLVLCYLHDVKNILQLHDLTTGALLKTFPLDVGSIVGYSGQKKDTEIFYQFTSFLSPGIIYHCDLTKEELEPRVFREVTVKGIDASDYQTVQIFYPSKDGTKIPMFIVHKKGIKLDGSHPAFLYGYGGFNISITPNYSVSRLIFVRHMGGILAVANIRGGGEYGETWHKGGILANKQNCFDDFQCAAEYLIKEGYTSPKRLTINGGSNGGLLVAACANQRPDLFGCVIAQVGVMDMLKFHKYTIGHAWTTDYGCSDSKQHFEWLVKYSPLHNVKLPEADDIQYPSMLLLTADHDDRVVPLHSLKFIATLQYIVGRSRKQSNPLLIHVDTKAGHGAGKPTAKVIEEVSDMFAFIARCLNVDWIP
Outline: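 Initial rates of fluorescence increase from 50 μM Z-Gly-Pro-AMC cleavage (ex 360/em 465 nm, 60 min, 32° C) give percent PREP activity versus no-compound control, and IC50 is interpolated. Enzyme used at 0.4 nM (final, example) in Tris pH 7.5 with EDTA, GSH, BSA and Brij-35; compounds span 1 nM to 30 μM.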
With `O=C([C@@H]1CCCc2nn(Cc3ccc(F)cc3F)c(=O)n21)N1CCC(F)(F)C1` [Example 487, (5S)-2-(2,4-Difluorobenzyl)-5-[(3,3-difluoropyrrolidin-1-yl)carbonyl]-5,6,7,8-tetrahydro[1,2,4]triazolo[4,3-a]pyridin-3(2H)-one] the pIC50 was 9.14.
In the case of `N#C[C@@H]1CCCN1C(=O)[C@@H]1CCCc2nn(Cc3ncc(Cl)cc3Cl)c(=O)n21` [Example 513, (2S)-1-({(5S)-2-[(3,5-Dichloropyridin-2-yl)methyl]-3-oxo-2,3,5,6,7,8-hexahydro[1,2,4]triazolo[4,3-a]pyridin-5-yl}carbonyl)pyrrolidine-2-carbonitrile], the pIC50 was 9.89.
For `O=C([C@@H]1CCCc2nn(Cc3ccnc(C(F)(F)F)n3)c(=O)n21)N1CCCC1` [Example 94, (5S)-5-(Pyrrolidin-1-ylcarbonyl)-2-{[2-(trifluoromethyl)pyrimidin-4-yl]methyl}-5,6,7,8-tetrahydro[1,2,4]triazolo[4,3-a]pyridin-3(2H)-one], the pIC50 was 7.24.
With `Cc1ccc(Cn2nc3n(c2=O)C(C(=O)N2CC(C(F)(F)F)C2)CCC3)cc1` (racemic) [Example 124, (5RS)-2-(4-Methylbenzyl)-5-{[3-(trifluoromethyl)azetidin-1-yl]carbonyl}-5,6,7,8-tetrahydro[1,2,4]triazolo[4,3-a]pyridin-3(2H)-one] the pIC50 was 7.85.
With `CC1Cc2nn(Cc3ccc(C(F)(F)F)nc3)c(=O)n2C(C(=O)N2CC(O)C2)C1` (single isomer, unassigned) [Example 135, (5RS,7RS)-5-[(3-Hydroxyazetidin-1-yl)carbonyl]-7-methyl-2-{[6-(trifluoromethyl)pyridin-3-yl]methyl}-5,6,7,8-tetrahydro[1,2,4]triazolo[4,3-a]pyridin-3(2H)-one] the pIC50 was 7.46.
`O=C(C1C(C(F)(F)F)CCc2nn(Cc3ncc(Cl)cc3Cl)c(=O)n21)N1CC(F)C1` (racemic) [Example 306, (5RS,6RS)-2-[(3,5-Dichloropyridin-2-yl)methyl]-5-[(3-fluoroazetidin-1-yl)carbonyl]-6-(trifluoromethyl)-5,6,7,8-tetrahydro[1,2,4]triazolo[4,3-a]pyridin-3(2H)-one] gave a pIC50 of 6.67.
Compound `O=C(C1CCc2nn(Cc3ccc(C(F)(F)F)nc3)c(=O)n21)N1CCC(F)(F)C1` (racemic) [Example 167, (5RS)-5-[(3,3-Difluoropyrrolidin-1-yl)carbonyl]-2-{[6-(trifluoromethyl)pyridin-3-yl]methyl}-2,5,6,7-tetrahydro-3H-pyrrolo[2,1-c][1,2,4]triazol-3-one] has a pIC50 of 7.25.
In the case of `Cc1ccc(Cn2nc3n(c2=O)C(C(=O)N2CCOCC2)CCC3)cc1` (racemic) [Example 159, (5RS)-2-(4-Methylbenzyl)-5-(morpholin-4-ylcarbonyl)-5,6,7,8-tetrahydro[1,2,4]triazolo[4,3-a]pyridin-3(2H)-one], the pIC50 was 7.80.
With `COc1ccc(Cn2nc3n(c2=O)[C@H](C(=O)N2CC(F)C2)CCC3)cn1` [Example 433, (5S)-5-[(3-Fluoroazetidin-1-yl)carbonyl]-2-[(6-methoxypyridin-3-yl)methyl]-5,6,7,8-tetrahydro[1,2,4]triazolo[4,3-a]pyridin-3(2H)-one] the pIC50 was 8.51.
`O=C([C@@H]1CCCc2nn(Cc3cccc(C(F)(F)F)n3)c(=O)n21)N1CC[C@H](F)C1` [Example 370, (5S)-5-{[(3S)-3-Fluoropyrrolidin-1-yl]carbonyl}-2-{[6-(trifluoromethyl)pyridin-2-yl]methyl}-5,6,7,8-tetrahydro[1,2,4]triazolo[4,3-a]pyridin-3(2H)-one] showed a pIC50 of 9.00.
`CN(C)C(=O)c1ccc(Cn2nc3n(c2=O)C(C(=O)N2CCCC2)CCC3)cc1` (racemic) [Example 156, N,N-Dimethyl-4-{[(5RS)-3-oxo-5-(pyrrolidin-1-ylcarbonyl)-5,6,7,8-tetrahydro[1,2,4]triazolo[4,3-a]pyridin-2(3H)-yl]methyl}benzamide] was tested, and the pIC50 was 7.16.
`Cc1ccc(Cn2nc3n(c2=O)[C@H](C(=O)N2CC[C@@H](O)C2)CCC3)cc1` [Example 122, (5S)-5-{[(3R)-3-Hydroxypyrrolidin-1-yl]carbonyl}-2-(4-methylbenzyl)-5,6,7,8-tetrahydro[1,2,4]triazolo[4,3-a]pyridin-3(2H)-one] gave a pIC50 of 7.99.
`O=C(C1C(C(F)(F)F)CCc2nn(Cc3ncc(Cl)cc3Cl)c(=O)n21)N1C[C@@H](F)[C@@H](F)C1` (single isomer, unassigned) [Example 288] gave a pIC50 of 7.80.
`CC1Cc2nn(Cc3ccnc(C(F)(F)F)c3F)c(=O)n2C(C(=O)N2CC(F)C2)C1` (racemic) [Example 335, (5RS,7RS)-5-[(3-Fluoroazetidin-1-yl)carbonyl]-2-{[3-fluoro-2-(trifluoromethyl)pyridin-4-yl]methyl}-7-methyl-5,6,7,8-tetrahydro[1,2,4]triazolo[4,3-a]pyridin-3(2H)-one] was tested, and the pIC50 was 8.98.
With `O=C([C@@H]1CCCc2nn(Cc3ccc(Br)cc3)c(=O)n21)N1C[C@@H](F)[C@@H](F)C1` [Example 210, (5S)-2-(4-Bromobenzyl)-5-{[(3R,4S)-3,4-difluoropyrrolidin-1-yl]carbonyl}-5,6,7,8-tetrahydro[1,2,4]triazolo[4,3-a]pyridin-3(2H)-one] the pIC50 was 9.57.
For `O=C([C@@H]1CCCc2nn(CC3(c4cccc(Cl)n4)CC3)c(=O)n21)N1CCC(F)(F)C1` [Example 349, (5S)-2-{[1-(6-Chloropyridin-2-yl)cyclopropyl]methyl}-5-[(3,3-difluoropyrrolidin-1-yl)carbonyl]-5,6,7,8-tetrahydro[1,2,4]triazolo[4,3-a]pyridin-3(2H)-one], the pIC50 was 8.84.
In the case of `O=C([C@@H]1CCCc2nn(Cc3cccc(Cl)n3)c(=O)n21)N1CCC(F)(F)C1` [Example 383, (5S)-2-[(6-Chloropyridin-2-yl)methyl]-5-[(3,3-difluoropyrrolidin-1-yl)carbonyl]-5,6,7,8-tetrahydro[1,2,4]triazolo[4,3-a]pyridin-3(2H)-one], the pIC50 was 8.07.
`O=C(C1CC(C(F)(F)F)Cc2nn(Cc3ccc(Cl)nc3)c(=O)n21)N1CC[C@@H](F)C1` (mixture of isomers) [Example 245, (5RS,7RS)-2-[(6-Chloropyridin-3-yl)methyl]-5-{[(3R)-3-fluoropyrrolidin-1-yl]carbonyl}-7-(trifluoromethyl)-5,6,7,8-tetrahydro[1,2,4]triazolo[4,3-a]pyridin-3(2H)-one] showed a pIC50 of 8.16.
`O=C(C1CCCc2nn(Cc3cc(F)c(F)cc3F)c(=O)n21)N1CCCC1` (racemic) [Example 89, (5RS)-5-(Pyrrolidin-1-ylcarbonyl)-2-(2,4,5-trifluorobenzyl)-5,6,7,8-tetrahydro[1,2,4]triazolo[4,3-a]pyridin-3(2H)-one] gave a pIC50 of 8.89.
For `COc1ncc(Cn2nc3n(c2=O)[C@H](C(=O)N2C[C@@H](F)[C@@H](F)C2)CCC3)cc1Cl` [Example 442, (5S)-2-[(5-Chloro-6-methoxypyridin-3-yl)methyl]-5-{[(3R,4S)-3,4-difluoropyrrolidin-1-yl]carbonyl}-5,6,7,8-tetrahydro[1,2,4]triazolo[4,3-a]pyridin-3(2H)-one], the pIC50 was 9.00.
`O=C([C@@H]1CCCc2nn(Cc3ccc(F)c(Cl)c3)c(=O)n21)N1C[C@@H](F)[C@@H](F)C1` [Example 456, (5S)-2-(3-Chloro-4-fluorobenzyl)-5-{[(3R,4S)-3,4-difluoropyrrolidin-1-yl]carbonyl}-5,6,7,8-tetrahydro[1,2,4]triazolo[4,3-a]pyridin-3(2H)-one] was tested, and the pIC50 was 9.57.
In the case of `O=C([C@@H]1CCCc2nn(Cc3ccc(Cl)nc3)c(=O)n21)N1CC(F)C(F)C1` (single isomer, unassigned) [Example 551], the pIC50 was 6.32.
`O=C([C@@H]1CCCc2nn(Cc3ccc(F)nc3)c(=O)n21)N1CCC(F)(F)C1` [Example 536, (5S)-5-[(3,3-Difluoropyrrolidin-1-yl)carbonyl]-2-[(6-fluoropyridin-3-yl)methyl]-5,6,7,8-tetrahydro[1,2,4]triazolo[4,3-a]pyridin-3(2H)-one] showed a pIC50 of 8.02.
For `O=C(C1CCCc2nn(Cc3ccc(Cl)nc3)c(=O)n21)N1CCC(F)(F)C1` (racemic) [Example 80, (5RS)-2-[(6-Chloropyridin-3-yl)methyl]-5-[(3,3-difluoropyrrolidin-1-yl)carbonyl]-5,6,7,8-tetrahydro[1,2,4]triazolo[4,3-a]pyridin-3(2H)-one], the pIC50 was 7.80.
`Cc1ccc(Cn2nc3n(c2=O)[C@H](C(=O)N2C[C@@H](O)[C@H](F)C2)CCC3)cc1` [Example 183, (5S)-5-{[(3R,4R)-3-Fluoro-4-hydroxypyrrolidin-1-yl]carbonyl}-2-(4-methylbenzyl)-5,6,7,8-tetrahydro[1,2,4]triazolo[4,3-a]pyridin-3(2H)-one] gave a pIC50 of 6.96.
